Where two headings read alike, the source gives them in different places.
Legend:
Recombinant human FGFR1 = Recombinant human FGFR1 (Homo sapiens, UniProt P11362); test: Transcreener Kinase Assay of FGFR1; format: biochemical
Method: (§1) • 1. […] Prepare Solution • Test compounds were solved in DMSO and were diluted with assay buffer to 5 folds of final concentration keeping the DMSO concentration at 5%. Further dilution are needed to make final concentrations are at 1, 0.33, 0.11, 0.037, 0.012, 0.004, 0.0014, 0.0005 μM; (the final concentration of DMSO is 1%). • Enzyme/Substrate stock Preparation: Recombinant human FGFR1 and Poly E4Y are both diluted in assay buffer.
• 3. Enzymatic Reaction • In a 96-well plate, add 5 μL of diluted solution of test compound or control solution. (positive control: 5 μL of 5% DMSO; negative control: 5 μL of 500 mM EDTA) into desired wells respectively; • Add 10 μL of Enzyme/Substrate stock into each well; • Add 10 μL of ATP Diluents to initiate the enzyme reaction and vortex the plate immediately on a plate shaker; • For the wells to make standard curve, add 5 μL of 5% DMSO, 10 μL of assay buffer and 10 μL of ATP standard curve stock. • Incubate the plate for 45 min at 28° C. on a plate shaker in a low speed. • 4. […] Excitation wavelength: 610 nm, Emission wavelength: 670 nm. • 5. Data Analysis
(§2) [formula] Note: • [ADP] in Compound well represents the ADP concentration in test compound well. • [ADP] in Positive control well represents the ADP concentration in 5% DMSO well • Conversion of mP value to ADP concentration is calculated based on the formula which determined by standard curve. And mP value is measured by following the instruction provided by BellBrook Labs. (www.bellbrooklabs.com). • 6. IC50: determined with add-in software for Microsoft Excel, XLfit™ (version 2.0) from ID Business Solutions (Guildford, UK).

FGFR3 kinase = FGFR3 kinase (Homo sapiens, UniProt P22607); test: Z-Lyte Kinase Assay of FGFR3; format: biochemical
Sequence of FGFR3 kinase (P22607 23-806): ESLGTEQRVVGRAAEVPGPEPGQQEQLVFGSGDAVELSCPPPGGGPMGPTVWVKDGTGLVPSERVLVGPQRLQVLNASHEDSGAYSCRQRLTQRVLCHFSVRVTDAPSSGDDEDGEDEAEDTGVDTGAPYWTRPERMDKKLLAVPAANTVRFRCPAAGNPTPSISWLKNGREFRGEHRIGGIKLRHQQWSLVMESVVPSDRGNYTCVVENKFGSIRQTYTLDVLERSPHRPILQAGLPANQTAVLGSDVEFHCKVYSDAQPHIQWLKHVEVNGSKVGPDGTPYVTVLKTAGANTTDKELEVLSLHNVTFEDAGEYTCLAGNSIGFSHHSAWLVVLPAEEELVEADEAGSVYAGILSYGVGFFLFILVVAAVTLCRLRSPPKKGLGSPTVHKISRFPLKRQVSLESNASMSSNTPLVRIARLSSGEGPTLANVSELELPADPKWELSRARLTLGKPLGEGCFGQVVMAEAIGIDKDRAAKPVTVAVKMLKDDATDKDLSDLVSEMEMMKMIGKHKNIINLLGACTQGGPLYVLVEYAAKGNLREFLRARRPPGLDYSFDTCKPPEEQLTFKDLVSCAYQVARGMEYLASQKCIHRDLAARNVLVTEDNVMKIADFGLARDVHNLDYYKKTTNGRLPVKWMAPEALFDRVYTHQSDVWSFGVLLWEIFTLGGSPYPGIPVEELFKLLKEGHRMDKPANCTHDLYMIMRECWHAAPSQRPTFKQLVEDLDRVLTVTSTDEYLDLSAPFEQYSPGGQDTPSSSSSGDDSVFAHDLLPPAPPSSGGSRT
Method: Example 25: Z-Lyte Kinase Assay of FGFR3
• 1. Materials and Reagents:
• 2. Reaction Steps: Plate Map
• 3. […] The final concentrations are 1, 0.33, 0.11, 0.037, 0.012, 0.004, 0.0014, 0.00046 μM, and the final concentration of DMSO is 2%. • 3) Kinase/Peptide Mixture (P/K solution): Prepare Kinase/Peptide Mixture by diluting the kinase to 0.7 μg/ml and the Z-LYTE™ Tyr 4 peptide to 4 μM in 1.33× Kinase Buffer. Mix gently by pipetting. • 4) Phospho-peptide Solution (PP solution): Add 0.4 μl of Z-LYTE™ Tyr 4 Phospho-peptide to 99.6 μl of 1.33× Kinase Buffer. • 5) ATP Solution: Prepare ATP Solution by diluting the 10 mM of ATP in 1.33× Kinase Buffer to 300 uM. • 6) Development Solution: Dilute Development Reagent B with Development Buffer as 1:128. • 4. […] Shake the plate for 30 Sec and centrifuge (1500 rpm, 1 min). • Seal the plate to protect from the light and incubate the plate for 1 hour at RT (25-30° C.). • 2) Development reaction • Add 5 μl of the Development solution to all wells. • Shake the plate for 30 Sec and centrifuge (1500 rpm, 1 min). • Seal the plate to protect from the light and incubate the plate for 1 hour at RT (25-30° C.). • 3) Stop and Read • Add 5 μl of the Stop reagent to all wells. • Shake the plate for 30 Sec and centrifuge (1500 rpm, 1 min). • Measure the value of Coumarin (Ex400 nm, Em445 nm) and fluorescein (Ex400 nm, Em520 nm), respectively. • 5. Data Analysis Emission Ratio(ER)=Coumarin Emission (445 nm)/Fluorescein Emission (520 nm) % Phosphorylation=1−[ER×C3520nm-C3445nm]/[(C1445nm-C3445nm)+ER×(C3520nm−C1520nm)] Inhibition rate (IR)=1−% Photest Cpd/% PhoC2 • 6. IC50 Value: determined with add-in software for Microsoft Excel, XLfit™ (version 2.0) from ID Business Solutions (Guildford, UK)

RT-112 = test: Cellular Proliferation Assay (Cell Counting Kit-8), RT-112; format: cell-based; settings: Homo sapiens; RT-112 cells, 72 hours
Method: (§3) Example 26: Cellular Proliferation Assay
(§4) • 1. Cell Line • KG-1 (ATCC Accession No. CCL-246), • SNU-16 (ATCC Accession No. CRL-5974), • RT-112 (ECACC Accession No. 85061106) • 2. Assay Protocol • FGFR related cancer cell proliferation is measured in 96-well plates using Cell Counting Kit-8 (Dojindo CK04-13). • Seed 30000 cells/well of KG1, 5000 cells/well of SNU16, and 1000 cells/well of RT112 in a volume of 100 μL/well in growth media. • After 24 hours, dilute the test compound to 10, 3.3, 1.1, 0.37, 0.12, 0.04, 0.013, 0.004 μM, keeping the DMSO concentration at 5%. • Add 10 μL of 8-point compound series to the wells of culturing cells. • Incubate at 37° C. and 5% CO2 for 72 hours • Add 10 μL/well of CCkit8 and incubate at 37° C. and 5% CO2 for an hour • Detect the optical density of each well at 450 nm on Labsystems Multiskan K3. • 3. Data Analysis
(§5) [formula] Note: • ODcompound well represents the optical density of cells treated with compound. • ODcell well represents the optical density of cells without compounds treatment.(only 0.5% DMSO) • ODcontrol well represents the optical density of culture media background • IC50: determined with add-in software for Microsoft Excel, XLfit™ (version 2.0) from ID Business Solutions (Guildford, UK).

SNU-16 = test: Cellular Proliferation Assay (Cell Counting Kit-8), SNU-16; format: cell-based; settings: Homo sapiens; SNU-16 cells, 72 hours
Method: as §3, §4, §5

Recombinant human FGFR2 = Recombinant human FGFR2 (Homo sapiens, UniProt P21802); test: Transcreener Kinase Assay of FGFR2; format: biochemical
Sequence of Recombinant human FGFR2 (P21802 22-821): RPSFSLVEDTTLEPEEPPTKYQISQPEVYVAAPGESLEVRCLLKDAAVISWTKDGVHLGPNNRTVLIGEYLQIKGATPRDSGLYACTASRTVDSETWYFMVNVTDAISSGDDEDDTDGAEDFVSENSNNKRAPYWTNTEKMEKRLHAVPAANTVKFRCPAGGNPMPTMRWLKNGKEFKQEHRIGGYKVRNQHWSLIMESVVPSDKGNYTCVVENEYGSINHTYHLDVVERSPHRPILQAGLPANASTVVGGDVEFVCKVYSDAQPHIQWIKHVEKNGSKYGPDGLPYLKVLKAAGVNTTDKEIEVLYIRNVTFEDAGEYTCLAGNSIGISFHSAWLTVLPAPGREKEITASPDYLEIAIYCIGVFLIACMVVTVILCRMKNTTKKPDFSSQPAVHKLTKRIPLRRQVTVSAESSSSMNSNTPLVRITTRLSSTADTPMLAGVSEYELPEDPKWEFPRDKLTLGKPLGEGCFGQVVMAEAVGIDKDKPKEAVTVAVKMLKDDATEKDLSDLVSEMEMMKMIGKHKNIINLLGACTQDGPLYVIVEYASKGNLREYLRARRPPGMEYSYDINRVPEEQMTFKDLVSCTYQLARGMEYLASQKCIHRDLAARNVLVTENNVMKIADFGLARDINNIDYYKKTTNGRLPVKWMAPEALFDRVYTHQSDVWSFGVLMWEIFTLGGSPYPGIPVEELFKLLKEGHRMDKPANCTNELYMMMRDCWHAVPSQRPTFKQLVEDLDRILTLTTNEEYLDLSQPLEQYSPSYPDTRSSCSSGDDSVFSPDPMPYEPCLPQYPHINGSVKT
Method: Example 24: Transcreener Kinase Assay of FGFR2
as §1, with “FGFR2” for “FGFR1”, “buffer. The final concentration is 0.3 ng/μL for FGFR2 and 62.5 ng/μL for Poly E4Y. The mixture is being kept in ice before use; • Prepare ATP Diluents, 10 mM ATP is diluted in assay buffer, the final concentration is 25 μM; • Prepare ADP Diluents: diluted ADP (500 μM) in assay buffer, the final concentration is 25 μM; • Prepare ATP standard curve stock as following:” for “buffer.”
• 3. Enzymatic Reaction • In a 96-well plate, add 5 μL of deluted solution of test compound or control solution. (positive control: 5 μL of 5% DMSO; negative control: 5 μL of 500 mM EDTA) into desired wells respectively; • Add 10 μL of Enzyme/Substrate stock into each well; • Add 10 μL of ATP Diluents to initiate the enzyme reaction and vortex the plate immediately on a plate shaker; • For the wells to make standard curve, add 5 μL of 5% DMSO, 10 μL of assay buffer and 10 μL of ATP standard curve stock. • Incubate the plate for 45 min at 28° C. on a plate shaker in a low speed. • 4. Stoping Reaction and Detecting ADP • Detection Mix Preparation: The mixture is made by dilution with MilliQ water; as following: ADP Alexa633 tracer (1:100), ADP antibody (1:158), and stop & detect buffer (1:10); • Tracer Only control Preparation: The mixture is made by dilution with MilliQ water; as following: ADP Alexa633 tracer (1:100), and stop & detect buffer (1: 10) • No Tracer control Preparation: stop & detect buffer is diluted with MilliQ water; by 10 fold. • Add 25 μL of detection mix, Tracer Only control and No Tracer control into corresponding wells, respectively; • Incubate at 28° C. for 1 h, on a plate shaker in a low speed; • Measure florescence polarization (mP) on TECAN F500. Excitation wavelength: 610 nm, Emission wavelength: 670 nm. • 5. Data Analysis
as §2

KG-1 = test: Cellular Proliferation Assay (Cell Counting Kit-8), KG-1; format: cell-based; settings: Homo sapiens; KG-1 cells, 72 hours; read-out: KG1 IC50
Method: as §3, §4, §5

Sequence of Recombinant human FGFR1 (P11362 22-822): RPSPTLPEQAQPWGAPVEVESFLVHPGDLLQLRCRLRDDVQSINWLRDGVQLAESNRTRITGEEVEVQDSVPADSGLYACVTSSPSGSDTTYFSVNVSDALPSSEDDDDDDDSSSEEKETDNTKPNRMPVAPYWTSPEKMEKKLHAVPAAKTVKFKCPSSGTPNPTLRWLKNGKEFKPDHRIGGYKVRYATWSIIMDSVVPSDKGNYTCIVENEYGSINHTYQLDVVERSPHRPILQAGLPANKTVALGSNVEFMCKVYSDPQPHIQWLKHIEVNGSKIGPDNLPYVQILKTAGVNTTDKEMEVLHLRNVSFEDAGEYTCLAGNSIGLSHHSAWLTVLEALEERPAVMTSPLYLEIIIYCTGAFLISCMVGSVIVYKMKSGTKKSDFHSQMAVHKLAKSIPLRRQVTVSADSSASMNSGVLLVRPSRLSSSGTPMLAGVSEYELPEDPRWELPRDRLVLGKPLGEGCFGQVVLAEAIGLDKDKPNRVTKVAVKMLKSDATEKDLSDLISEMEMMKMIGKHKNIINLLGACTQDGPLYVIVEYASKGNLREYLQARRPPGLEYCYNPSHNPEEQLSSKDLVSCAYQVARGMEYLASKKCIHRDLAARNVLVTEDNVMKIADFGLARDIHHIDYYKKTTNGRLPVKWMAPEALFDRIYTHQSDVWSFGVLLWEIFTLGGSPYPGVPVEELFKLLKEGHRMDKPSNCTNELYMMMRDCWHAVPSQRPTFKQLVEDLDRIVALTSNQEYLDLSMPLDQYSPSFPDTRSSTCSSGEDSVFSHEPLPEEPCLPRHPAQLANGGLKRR

IC50 (Recombinant human FGFR1; read-out: FGFR1 (FP) IC50) [nM] | IC50 (FGFR3 kinase) [nM] | IC50 (SNU-16) [nM] | IC50 (Recombinant human FGFR2; read-out: FGFR2 (FP) IC50) [nM] | IC50 (Recombinant human FGFR1; FP) [nM] | IC50 (FGFR3 kinase; Z-lyte) [nM] | IC50 (Recombinant human FGFR2; FP) [nM] | Compound | IC50 (RT-112) [nM] | IC50 (KG-1) [nM]
6 | 30 | 15 | 4 | – | – | – | CNC(=O)c1cc(COc2cnc(Nc3cccc(-n4ccnn4)c3)nc2)c(Cl)c(OC)c1 [Compound 234] | 35 | 14
– | – | 17 | – | 17 | 17 | 18 | CNC(=O)c1cc(OC)c(Cl)c(COc2cnc(Nc3ccc(N4C[C@@H](C)N[C@@H](C)C4)nc3)nc2)c1F [Compound 291] | 27 | 15
14 | 6 | 7 | 7 | – | – | – | CNC(=O)c1cc(CCc2cnc(Nc3ccc(N4C[C@@H](C)N(C)[C@@H](C)C4)nc3)nc2)c(Cl)c(OC)c1 [Compound 158] | 29 | 16
– | – | 7 | – | 27 | 16 | 18 | CCN1CCC(c2ccc(Nc3ncc(OCc4cc(C(=O)NC)cc(OC)c4F)cn3)cc2OC)CC1 [Compound 280] | 29 | 191
17 | 228 | 60 | 9 | – | – | – | CNC(=O)c1cc(COc2cnc(Nc3cccc(-n4nccn4)c3)nc2)c(Cl)c(OC)c1 [Compound 232] | 107 | 70
38 | 15 | 10 | 14 | – | – | – | CNC(=O)c1cc(COc2cnc(Nc3cnn(C[C@H]4COC(C)(C)O4)c3)nc2)c(F)c(OC)c1 [Compound 249] | 30 | 27
20 | 18 | 36 | 14 | – | – | – | CNC(=O)c1cc(COc2cnc(Nc3cnc(N4C[C@@H](C)N[C@@H](C)C4)c(F)c3)nc2)c(F)c(OC)c1 [Compound 277] | 109 | 57
14 | 6 | 9 | 6 | – | – | – | CNC(=O)c1cc(CCc2cnc(Nc3ccc(N4C[C@@H](C)N[C@@H](C)C4)c(OC)c3)nc2)c(F)c(OC)c1 [Compound 156] | 13 | 218
34 | 23 | 39 | 23 | – | – | – | CCCN1CC(c2ccc(Nc3ncc(OCc4cc(C(=O)NC)cc(OC)c4F)cn3)cc2)C1 [Compound 240] | 56 | 23
24 | 177 | 115 | 13 | – | – | – | C#Cc1cccc(Nc2ncc(OCc3cc(C(=O)NC)cc(OC)c3F)cn2)c1 [Compound 210] | 305 | 166
23 | 10 | 6 | 11 | – | – | – | CCN1[C@H](C)CN(c2ccc(Nc3ncc(CCc4cc(C(=O)NC)cc(OC)c4Cl)cn3)cn2)C[C@@H]1C [Compound 159] | 21 | 26
– | – | 23 | – | 29 | 26 | 12 | CNC(=O)c1cc(C#Cc2cnc(Nc3ccc(N4C[C@@H](C)N[C@@H](C)C4)c(OC)c3)nc2)c(F)c(OC)c1 [Compound 306] | 16 | 100
– | – | 14 | – | 9 | 13 | 8 | CNC(=O)c1cc(OC)c(Cl)c(COc2cnc(Nc3ccc(N4C[C@@H](C)N[C@@H](C)C4)c(C)c3)nc2)c1F [Compound 298] | 15 | 8
43 | 21 | 29 | 20 | – | – | – | CCN(CC)CCOc1ccc(Nc2ncc(OCc3cc(C(=O)NC)cc(OC)c3F)cn2)cc1 [Compound 262] | 133 | 37
10 | 5 | 6 | 7 | – | – | – | CNC(=O)c1cc(COc2cnc(Nc3ccc(N4CCN(C)CC4)c(OC)c3)nc2)c(F)c(OC)c1 [Compound 269] | 5 | 6
– | – | 11 | – | 6 | 8 | 6 | CNC(=O)c1cc(OC)c(Cl)c(COc2cnc(Nc3ccc(N4C[C@@H](C)N[C@@H](C)C4)c(F)c3)nc2)c1F [Compound 299] | 15 | 7
